Assay [1] relates to rice seedlings (cultivar 'Dongjin'). Briefly: Rice seedlings grown hydroponically with the compound: crown roots and biomass. It counts as in vivo. The note with it: hydroponic. As for the experimental part:
FIG. 10: 3-OH-β-apo-13-Carotenone treatment increases the number of crown roots in rice. Seeds of cultivar ‘Dongjin’ were pre-germinated in water for 2 days followed by transfer to filter papers placed in petri dishes containing half-strength liquid Murashige and Skoog (MS) medium. The cultures were incubated at 24° C. for one week. Thereafter, the seedlings were grown hydroponically in half-strength modified Hoagland nutrient solution containing different concentrations of 3-OH-β-apo-13-carotenone for 2 weeks in the greenhouse. The medium was changed twice a week, data were recorded 2 weeks after treatment. (FIG. 10A) Number of crown roots of rice seedlings 2 weeks after treatment. Each value represents the mean of 10 seedlings. Error bar indicates standard error. Asterisks denote a significant difference from the mock treatment by student t-test (* P<0.05; ** P<0.01). FIG. 11: Root and shoot biomass of rice seedlings treated with 3-OH-β-apo-13-Carotenone. One week-old seedlings of cultivar ‘Dongjin’ were grown hydroponically in half-strength modified Hoagland nutrient solution containing different concentrations of 3-OH-β-apo-13-Carotenone for two weeks in the greenhouse. The medium was changed twice a week. After two weeks, roots and shoots were collected separately and dried in an incubator at 80° C. for 3 days. Dried samples were weighed using a Mettler Toledo balance. […]

The test system of assay [2] is Arabidopsis (col-0) seedlings. Briefly: Hypocotyl-derived adventitious root formation in Arabidopsis seedlings. The note with it: 2.5 μM; arising after dark-light transition. It counts as in vivo, Arabidopsis thaliana. The source says: FIG. 12A: 3-OH-β-apo-13-Carotenone treatment increases the number of hypocotyl-derived adventitious roots in a concentration-dependent manner (14 days old plants). For a better resolution, see FIG. 12B. FIG. 12B: 3-OH-β-apo-13-Carotenone treatment increases the number of hypocotyl-derived adventitious roots. (A) 4-day-old Arabidopsis (col-0) seedlings were transferred to 3-OH-β-apo-13-Carotenone containing plates at the indicated concentrations and grown for 10 days. Red arrows indicate adventitious roots on hypocotyl (B) Average number of adventitious roots. Seeds were germinated on 1 MS medium with 0.5% sucrose (pH 5.7) and grown for 4 days in the dark. Error bars represent means±S.E. Asterisks indicate significant differences as calculated using a standard Student's t-test (*P<0.005, ** <0.001). […] Therefore, we tested whether β-apo-13-carotenone can also induce adventitious root formation in the model plant Arabidopsis thaliana. As shown in FIGS. 12A and 12B, the compound exerted a clear induction on the number of hypocotyl-derived adventitious roots that usually arise spontaneously after dark-light transition. Highest activity—around 50% increase, was obtained with 2.5 μM concentrations (FIGS. 12A and 12B).

In assay [3] the test system is Leaf explants of 12-day-old seedlings. Briefly: Leaf-derived adventitious roots (leaf explants of 12-day-old seedlings). It is filed as in vivo, Arabidopsis thaliana. The source says: FIG. 13: 3-OH-β-apo-13-Carotenone treatment increases the number of leaf-derived adventitious roots (Leaf explants of 12-day-old seedlings). […] Therefore, we tested whether β-apo-13-carotenone can also induce adventitious root formation in the model plant Arabidopsis thaliana. As shown in FIGS. 12A and 12B, the compound exerted a clear induction on the number of hypocotyl-derived adventitious roots that usually arise spontaneously after dark-light transition. Highest activity—around 50% increase, was obtained with 2.5 μM concentrations (FIGS. 12A and 12B).

Assay [4] has as its system Arabidopsis. Briefly: Number of lateral roots in Arabidopsis (14 days old plants). It is filed as in vivo. As for the experimental part:
FIG. 14: 3-OH-β-apo-13-Carotenone treatment of Arabidopsis increases the number of lateral roots in a concentration-dependent manner (14 days old plants). 0-5 μM corresponds to different concentrations of synthetic 3-OH-β-apo-13-Carotenone. Puri corresponds to synthetic 3-OH-β-apo-13-Carotenone after HPLC purification. […] Therefore, we tested whether β-apo-13-carotenone can also induce adventitious root formation in the model plant Arabidopsis thaliana. As shown in FIGS. 12A and 12B, the compound exerted a clear induction on the number of hypocotyl-derived adventitious roots that usually arise spontaneously after dark-light transition. Highest activity—around 50% increase, was obtained with 2.5 μM concentrations (FIGS. 12A and 12B). […] To ensure that the biological activity observed is caused by 3-OH-β-apo-13-carotenone and not by a possible contamination with a different compound that may be included during the organic synthesis, HPLC was used to isolate highly pure 3-OH-β-apo-13-carotenone, and the purified compound was applied.

Assay [5] relates to Arabidopsis (Col-0). Briefly: Lateral root density in Arabidopsis, single and combined treatment with auxin. It counts as in vivo. To be noted: 3-OH-β-apo-13-carotenone 2.5 μM, auxin 100 nM; 9 days. As for the experimental part:
FIG. 15: Combined 3-OH-β-apo-13-Carotenone and auxin treatment of Arabidopsis has a synergetic effect on lateral root density. 3-OH-β-apo-13-carotenone and auxin (indole-3-acetic acid) were applied at 2.5 μM and 100 nM, concentrations, respectively. Arabidopsis (Col-0) seeds were germinated in/MS-plates (with 0.5% sucrose) containing individual and both compounds together and grown in 16 light/8 dark period, 22° C. for 9 days. Graph represents both actual density and in percentage. *P<0.05; Student's t test; **P<0.05; Student's t test. Also investigated was possible effect of combining 3-OH-β-apo-13-carotenone with auxin.

Assay [6] concerns Arabidopsis (Col-0). Briefly: Primary root length in Arabidopsis. It counts as in vivo. To be noted: 2.5 μM, 9 days. As to the method:
FIG. 16: 3-OH-β-apo-13-Carotenone treatment of Arabidopsis increases the length of primary root. Arabidopsis (Col-0) seeds were germinated on/MS-plates (with 0.5% sucrose) containing 3-OH-β-apo-13-carotenone and grown in 16 light/8 dark period, 22° C. for 9 days. *P<0.05; Student's t-test; **P<0.05; Student's t test. 3-OH-β-apo-13-carotenone was applied at 2.5 μM concentration. Also investigated was the effect of the compound on primary root length.

Assay [7] in a line: Greenhouse experiments. It counts as in vivo.
Assay [8] has as its system root hairs. To be noted: at high concentration; cited from earlier work.

Regarding `CC(=O)/C=C/C=C(C)/C=C/C1=C(C)CC(O)CC1(C)C` (stereo not drawn) [3-OH-β-apo-13-carotenone], the “number of crown roots” value in assay [1] (micromolar concentrations, 2 weeks after treatment) is given as “obvious increase in the number of crown roots”. The “increase in root and shoot biomass” value in assay [1] (two weeks, dried samples) was “around 30%”. Moreover, in assay [2], the “increase in number of hypocotyl-derived adventitious roots (highest activity)” value is reported as “around 50%”. Also, the “number of leaf-derived adventitious roots” value in assay [3] is recorded as “noticeable increase (duplication)”. Moreover, the “number of lateral roots” value in assay [4] (2.5 μM, synthetic compound) is on record as “clearly increased the number of lateral roots”. Further, the lateral root number entry in assay [4] (compound after HPLC purification) is reported as “increase in lateral root number was detected similar to that observed before”. Moreover, the “increase in lateral root density, single treatment” value in assay [5] is on record as “around 20%”. Further, the primary root length result in assay [6] is on record as “small but significant increase”. Further, the “growth and flowering in greenhouse experiments” value in assay [7] is “growth-promoting effects and early flowering”.
Turning to `O=C(O)Cc1c[nH]c2ccccc12` [auxin, indole-3-acetic acid, reference compound], in assay [5], the “increase in lateral root density, single treatment” value is reported as ~30%.
Turning to `CC(=O)/C=C/C=C(C)/C=C/C1=C(C)CCCC1(C)C` [d'orenone, β-apo-13-carotenone], the “tip growth of root hairs” value in assay [8] is on record as “block tip growth of root hairs”.
